Key:
[1] = system: adult rats; assay: Foot shock-induced ultrasonic vocalization (USV) in adult rats; type: in vivo, rat; settings: 1 mg/kg per os, 1 h before shocking, male Wistar rats, versus vehicle
Description: Foot Shock-Induced Ultrasonic Vocalization (USV) in Adult Rats
(§1) Under stressful conditions, adult rats emit 22 kHz ultrasounds that can be reduced by various pharmacological treatments (De Vry et al, Eur. J. Pharmacol. 1993, 249, 331-339; Sanchez, Eur. J. Pharmacol. 2003, 463, 133-143). […] Therefore, a foot shock-induced vocalization paradigm in adult rats was used to assess efficacy of centrally acting GABAB receptor ligands. Behavioral measurements were carried out on male Wistar rats (200-250 g, Toxicoop, Hungary). Rats were housed in groups of four in plastic cages with a wire grid top in a temperature and light-controlled laboratory animal care unit (22±2° C., 12-h light/dark cycle, lights on at 6:00 AM) with ad libitum access to commercial pellet rat food and tap water. Investigations were approved by the Local Ethical Committee of Gedeon Richter Plc. and were carried out in strict compliance with the European Directive 2010/63/EU regarding the care and use of laboratory animals for experimental procedures and all efforts were made to minimize the number of animals as well as their suffering. In order to evoke emission of ultrasounds, animals were footshocked after a habituation period of 30 s (6 shocks, 1 s, 0.8 mA each, inter-shock interval 10 s) in a sound attenuated shocking chamber (Experimetria, 40×40×80 cm). Investigational compounds were administered at the dose of 1 mg/kg in a solid dispersion formulation in distilled water 1 h before shocking per os. Vocalizations were measured right after the last footshock for 10 min with a Metris Sonotrack system and the total time of vocalizations was registered. Vocalization of parallel vehicle treated animals was considered as control value and inhibition percent was calculated for each compound. At approximately 75 min after treatment and behavioral measurements, blood and brain samples were harvested in order to determine exposures associated with in vivo activity.

[2] = molecular target: T1, GABAB receptor (Rattus norvegicus, UniProt O88871+Q9Z0U4); assay: In vitro [35S]GTPγS binding assay in rat cortical membranes; type: biochemical; settings: PAM EC50, [35S]GTPγS binding, read-out: In vitro PAM potency
T1 construct: from tissue; host or cells: rat brain cortex membranes
T1 sequence (O88871 41-940): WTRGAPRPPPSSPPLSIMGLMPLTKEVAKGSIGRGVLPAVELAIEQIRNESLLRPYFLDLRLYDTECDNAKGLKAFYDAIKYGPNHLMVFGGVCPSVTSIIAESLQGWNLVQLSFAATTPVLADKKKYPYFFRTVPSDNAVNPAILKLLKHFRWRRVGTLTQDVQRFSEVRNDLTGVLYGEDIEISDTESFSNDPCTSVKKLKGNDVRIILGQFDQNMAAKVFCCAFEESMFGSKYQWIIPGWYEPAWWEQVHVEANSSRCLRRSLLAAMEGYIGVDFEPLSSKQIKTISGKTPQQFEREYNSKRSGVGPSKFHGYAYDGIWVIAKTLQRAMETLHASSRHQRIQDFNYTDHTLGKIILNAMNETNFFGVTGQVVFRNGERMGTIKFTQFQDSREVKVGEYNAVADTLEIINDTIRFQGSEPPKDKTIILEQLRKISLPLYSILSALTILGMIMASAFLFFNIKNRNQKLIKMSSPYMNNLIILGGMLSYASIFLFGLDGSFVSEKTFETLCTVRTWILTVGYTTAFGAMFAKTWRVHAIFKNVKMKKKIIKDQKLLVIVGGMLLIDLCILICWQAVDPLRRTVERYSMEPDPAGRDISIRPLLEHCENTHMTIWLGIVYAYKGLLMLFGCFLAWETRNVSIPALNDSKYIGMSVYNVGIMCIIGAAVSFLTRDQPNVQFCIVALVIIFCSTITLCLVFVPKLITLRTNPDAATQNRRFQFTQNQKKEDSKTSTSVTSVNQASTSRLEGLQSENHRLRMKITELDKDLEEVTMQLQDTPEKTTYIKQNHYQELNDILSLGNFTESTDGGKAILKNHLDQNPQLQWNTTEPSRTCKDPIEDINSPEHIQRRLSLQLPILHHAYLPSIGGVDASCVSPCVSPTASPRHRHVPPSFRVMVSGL
T1 sequence (Q9Z0U4 17-960 limits assumed): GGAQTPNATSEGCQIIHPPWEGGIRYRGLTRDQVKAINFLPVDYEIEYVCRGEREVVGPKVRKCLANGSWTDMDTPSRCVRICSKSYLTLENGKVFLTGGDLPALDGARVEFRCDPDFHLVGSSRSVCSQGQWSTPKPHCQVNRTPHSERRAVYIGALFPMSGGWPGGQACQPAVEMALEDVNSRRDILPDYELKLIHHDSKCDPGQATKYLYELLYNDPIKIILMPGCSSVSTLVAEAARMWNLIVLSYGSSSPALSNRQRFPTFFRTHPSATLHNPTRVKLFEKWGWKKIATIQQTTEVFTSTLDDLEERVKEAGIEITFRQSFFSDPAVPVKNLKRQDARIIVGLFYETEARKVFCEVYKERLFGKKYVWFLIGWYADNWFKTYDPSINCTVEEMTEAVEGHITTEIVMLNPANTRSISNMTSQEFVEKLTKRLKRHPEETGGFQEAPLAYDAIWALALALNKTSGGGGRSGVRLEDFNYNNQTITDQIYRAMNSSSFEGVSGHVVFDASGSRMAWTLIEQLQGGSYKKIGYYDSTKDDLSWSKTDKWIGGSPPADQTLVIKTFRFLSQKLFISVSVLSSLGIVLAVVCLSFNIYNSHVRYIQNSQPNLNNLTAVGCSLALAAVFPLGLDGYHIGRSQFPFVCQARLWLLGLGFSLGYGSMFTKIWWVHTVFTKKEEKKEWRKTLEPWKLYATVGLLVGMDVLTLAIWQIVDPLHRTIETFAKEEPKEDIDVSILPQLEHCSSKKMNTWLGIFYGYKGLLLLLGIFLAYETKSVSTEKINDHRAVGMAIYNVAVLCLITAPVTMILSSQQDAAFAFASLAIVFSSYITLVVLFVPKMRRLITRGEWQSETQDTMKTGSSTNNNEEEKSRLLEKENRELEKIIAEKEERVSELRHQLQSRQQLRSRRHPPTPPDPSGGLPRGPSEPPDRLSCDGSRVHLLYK
Description: In Vitro [^35S]GTPγS Binding Assay in Rat Cortical Membranes
Cortices of freshly harvested rat brains were dissected on an ice-cold surface and homogenized by a glass Dounce homogeniser immediately in ice-cold buffer containing 50 mM Tris, 5 mM MgCl2 and 1 mM EDTA (pH=7.6). Tissue homogenates were centrifuged at 40000 g for 15 min at 4° C. Membrane pellets were resuspended in the same buffer and membranes were incubated for 10 min at 30° C. in a shaking water bath to eliminate endogenous GABA. Homogenates were centrifuged again under the same conditions. The final pellets were resuspended in ice-cold buffer (pH=7.6) containing 50 mM Tris, 100 mM NaCl, 7 mM MgCl2, 1 mM EDTA and 1 mM dithiotreithol (DTT) to yield a concentration of 20 mg tissue weight/ml and frozen at −70° C. until use. The assay was done in a buffer containing 50 mM Tris (pH=7.4), 100 mM NaCl, 7 mM MgCl2, 1 mM EDTA and 1 mM DTT. Each assay tube contained 150 μL GDP (in a final concentration of 50 μM), 100 μL ligand and 125 μL of the membrane suspension (250 μg tissue/tube). The assay tubes were preincubated for 10 min at 30° C. to assure equilibrium. Nonspecific binding was determined in the presence of 10 μM GTPγS: basal binding was determined in the presence of buffer only. After addition of 50 pM [^35S]GTPγS in a volume of 25 μL to the tubes, membranes were incubated for an additional 60 min at 30° C. The assay was terminated by rapid filtration through Packard UniFilter GF/B using a Packard harvester and washed four times with 1 ml ice-cold buffer. After drying the filters at 40° C. for 1 h, 40 μL Microscint (Packard) was added to the filters and radioactivity of the filters was determined by a TopCount NXT (PerkinElmer, Waltham, Mass.: Alper and Nelson, Eur. J. Pharmacol. 1998, 343, 303-312; Rinken et al, Biochem. Pharmacol. 1999, 57, 155-162). Data thus gathered were used to determine PAM EC50 values for each compound as primary in vitro activity end point.

[3] = Plasma and brain levels after the USV assay; type: in vivo, rat; settings: 1 mg/kg per os, approximately 75 min after treatment; for brain exposure at 1 mg/kg: rat brain; for plasma exposure at 1 mg/kg: rat plasma
Description: as §1
In Table 2 compounds of this invention measured in the USV assay are listed. In Table 3 plasma and brain levels of compounds of this invention are listed.

[4] = molecular target: GABAB receptors (Homo sapiens, UniProt O75899+Q9UBS5); settings: in vitro positive allosteric activity, [35S]GTPγS binding; cited from earlier work
GABAB receptors, sequence (O75899 42-941): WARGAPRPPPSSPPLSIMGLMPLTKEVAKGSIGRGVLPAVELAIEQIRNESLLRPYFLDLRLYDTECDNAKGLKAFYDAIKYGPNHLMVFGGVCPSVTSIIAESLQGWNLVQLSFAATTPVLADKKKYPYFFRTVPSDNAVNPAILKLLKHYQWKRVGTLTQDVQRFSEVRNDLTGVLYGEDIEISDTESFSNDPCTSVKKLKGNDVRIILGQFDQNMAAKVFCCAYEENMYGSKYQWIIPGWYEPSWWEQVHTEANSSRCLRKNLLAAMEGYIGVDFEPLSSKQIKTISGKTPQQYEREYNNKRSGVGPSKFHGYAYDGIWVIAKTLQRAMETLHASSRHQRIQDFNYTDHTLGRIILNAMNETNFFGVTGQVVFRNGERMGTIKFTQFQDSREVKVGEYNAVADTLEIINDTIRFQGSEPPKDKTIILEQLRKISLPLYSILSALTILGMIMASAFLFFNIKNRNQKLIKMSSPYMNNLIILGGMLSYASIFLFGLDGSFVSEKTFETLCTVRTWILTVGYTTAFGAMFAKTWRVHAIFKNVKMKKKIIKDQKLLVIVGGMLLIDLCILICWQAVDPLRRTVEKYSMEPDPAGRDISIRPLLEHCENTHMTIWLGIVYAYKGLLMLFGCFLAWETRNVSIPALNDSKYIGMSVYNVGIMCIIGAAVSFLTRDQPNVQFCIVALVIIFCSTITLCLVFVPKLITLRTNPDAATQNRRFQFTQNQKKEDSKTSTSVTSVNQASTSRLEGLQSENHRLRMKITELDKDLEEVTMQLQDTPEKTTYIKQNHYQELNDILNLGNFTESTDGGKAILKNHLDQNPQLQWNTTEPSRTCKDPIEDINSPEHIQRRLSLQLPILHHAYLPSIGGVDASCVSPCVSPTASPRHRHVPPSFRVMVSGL
GABAB receptors, sequence (Q9UBS5 15-961 limits assumed): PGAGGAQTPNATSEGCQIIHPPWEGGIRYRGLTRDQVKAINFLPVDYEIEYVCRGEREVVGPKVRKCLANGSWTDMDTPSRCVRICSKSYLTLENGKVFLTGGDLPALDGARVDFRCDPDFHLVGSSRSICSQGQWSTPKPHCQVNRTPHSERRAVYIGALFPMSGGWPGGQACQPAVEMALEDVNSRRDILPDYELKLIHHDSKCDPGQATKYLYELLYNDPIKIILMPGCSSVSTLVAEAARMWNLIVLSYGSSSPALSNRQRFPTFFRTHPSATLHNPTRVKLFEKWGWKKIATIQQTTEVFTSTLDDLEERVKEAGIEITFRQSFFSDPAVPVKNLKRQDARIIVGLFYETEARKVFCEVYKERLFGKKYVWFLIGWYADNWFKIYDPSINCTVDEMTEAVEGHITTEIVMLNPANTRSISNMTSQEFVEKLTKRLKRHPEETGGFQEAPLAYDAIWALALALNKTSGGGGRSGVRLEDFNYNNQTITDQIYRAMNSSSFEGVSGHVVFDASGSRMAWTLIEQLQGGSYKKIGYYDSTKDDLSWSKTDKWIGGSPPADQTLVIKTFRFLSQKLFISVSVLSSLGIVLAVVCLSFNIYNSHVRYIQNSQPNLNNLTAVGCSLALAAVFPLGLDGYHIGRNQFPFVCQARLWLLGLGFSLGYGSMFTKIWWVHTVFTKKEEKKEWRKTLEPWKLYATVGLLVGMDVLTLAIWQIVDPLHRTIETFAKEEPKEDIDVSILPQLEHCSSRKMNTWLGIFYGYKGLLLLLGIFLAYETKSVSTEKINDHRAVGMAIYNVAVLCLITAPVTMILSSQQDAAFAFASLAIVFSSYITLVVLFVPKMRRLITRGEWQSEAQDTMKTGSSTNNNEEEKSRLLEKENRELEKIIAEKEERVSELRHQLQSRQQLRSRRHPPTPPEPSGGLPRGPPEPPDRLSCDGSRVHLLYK

Row | EC50 [2] [nM] | brain exposure at 1 mg/kg [3] [ng/g] | plasma exposure at 1 mg/kg [3] [ng/mL] | Compound | USV inhibition at 1 mg/kg (%) [1] [%] | binding potency (Faghih et al.) [4]
1 | 1 to 10 | 62 | 121 | CC[C@]1(C(=O)O)CCCN(c2c(C(C)C)c(C)nc3cc([C@H]4CC[C@H](C(F)(F)F)CC4)nn23)C1 (single isomer, unassigned) [Example 12] | 59 | 
2 | < 1 | 31 | 124 | CC[C@@]1(C(=O)O)CCCN(c2c(C(C)C)c(C)nc3cc([C@H]4CC[C@H](C(F)(F)F)CC4)nn23)C1 (single isomer, unassigned) [Example 13] | 97 | 
3 | 1 to 10 | 53 | 170 | Cc1nc2c(F)c([C@H]3CC[C@H](C(F)(F)F)CC3)nn2c(N2CCC[C@](C)(C(=O)O)C2)c1C(C)C (single isomer, unassigned) [Example 15] | 89 | 
4 | < 1 | 36 | 131 | Cc1nc2c(F)c([C@H]3CC[C@H](C(F)(F)F)CC3)nn2c(N2CCC[C@@](C)(C(=O)O)C2)c1C(C)C (single isomer, unassigned) [Example 16] | 100 | 
5 | 1 to 10 | 74 | 188 | Cc1nc2cc([C@H]3CC[C@H](C(F)(F)F)CC3)nn2c(N2CCC[C@](C(=O)O)(C(C)C)C2)c1C(C)C [Example 2, (3S)-1-[5-Methyl-6-(propan-2-yl)-2-[trans-4-(trifluoromethyl)cyclohexyl]-pyrazolo[1,5-a]pyrimidin-7-yl]-3-(propan-2-yl)piperidine-3-carboxylic Acid] | 85 | 
6 | < 1 | 18 | 58 | Cc1nc2cc([C@H]3CC[C@H](C(F)(F)F)CC3)nn2c(N2CCC[C@@](C)(C(=O)O)C2)c1C(C)C [Example 3, (3R)-3-methyl-1-[5-methyl-6-(propan-2-yl)-2-[trans-4-(trifluoromethyl)cyclohexyl]-pyrazolo [1,5-a]pyrimidin-7-yl]piperidine-3-carboxylic Acid] | 100 | 
7 | 1 to 10 | 68 | 146 | Cc1nc2cc([C@H]3CC[C@H](C(F)(F)F)CC3)nn2c(N2CCC[C@](C)(C(=O)O)C2)c1C(C)C [Example 11] | 71 | 
8 |  | 34 | 172 | CCc1nc2cc([C@H]3CC[C@H](C(F)(F)F)CC3)nn2c(N2CCC[C@@](C)(C(=O)O)C2)c1CC [Example 33] | 63 | 
9 | 100 to 1000 |  |  | C[C@]1(C(=O)O)CCCN(c2c3c(nc4cc([C@H]5CC[C@H](C(F)(F)F)CC5)nn24)COCC3)C1 [Example 37] |  | 
10 | 100 to 1000 |  |  | C[C@@]1(C(=O)O)CCCN(c2c3c(nc4cc([C@H]5CC[C@H](C(F)(F)F)CC5)nn24)COCC3)C1 [Example 42] |  | 

Second part, the compound before the results:

Row | Compound | EC50 [2] [nM] | brain exposure at 1 mg/kg [3] [ng/g] | plasma exposure at 1 mg/kg [3] [ng/mL] | USV inhibition at 1 mg/kg (%) [1] [%] | binding potency (Faghih et al.) [4]
11 | CC[C@]1(C(=O)O)CCCN(c2c(C(C)C)c(C)nc3c(F)c([C@H]4CC[C@H](C(F)(F)F)CC4)nn23)C1 (single isomer, unassigned) [Example 17] | 1 to 10 | 74 | 135 | 79 | 
12 | CC[C@@]1(C(=O)O)CCCN(c2c(C(C)C)c(C)nc3c(F)c([C@H]4CC[C@H](C(F)(F)F)CC4)nn23)C1 (single isomer, unassigned) [Example 18] | < 1 | 30 | 175 | 75 | 
13 | CCC(c1ccc(Cl)cc1)c1cc2nc(C)cc(N3CCCCC3CCO)n2n1 (stereo not shown) [Example 3-1] |  |  |  |  | nanomolar
14 | CCCC(c1ccc(Cl)cc1)c1cc2nc(C)cc(N3CCCCC3CCO)n2n1 (stereo not shown) [Example 5-1] |  |  |  |  | nanomolar
15 | Cc1cc(N2CCCCC2CCO)n2nc(CC34CC5CC(CC(C5)C3)C4)cc2n1 (stereo not shown) [Example 7-1] |  |  |  |  | high micromolar
16 | C[C@@]1(C(=O)O)CCCN(c2c3c(nc4cc([C@H]5CC[C@H](C(F)(F)F)CC5)nn24)CCCCC3)C1 [Example 35] | 1 to 10 | 35 | 207 | 57 | 
17 | Cc1nc2c(F)c(C3CCC(F)(F)CC3)nn2c(N2CCC[C@@](C)(C(=O)O)C2)c1C(C)C [Example 40] | 1 to 10 |  |  |  | 
